Values after ≈ are worked out from the molar mass of the structure shown.
What was measured:
physchem [1] = settings: buffer, pH 7.4
Description: GSK_TB: GSK in-house hydrophobicity assay at pH7.4 (logD)

physchem [2] = settings: octanol/water
Description: GSK_TB: GSK in-house hydrophobicity assay (logP)

physchem [3] = settings: phosphate buffered saline, pH 7.4
[4] = test system: Mycobacterium tuberculosis H37Rv; assay: microbe, parasite or virus in culture
Description: GSK_TB: Intracellular minimum inhibitory concentration (MIC) H37Rv assay

SMILES	logD (physchem [1])	logP (physchem [2])	solubility kinetic (physchem [3]) [µM]	MIC90 [4] [µM]
O=C(Nc1nc(-c2ccccn2)cs1)c1cncn1-c1ccccc1	3.39	3.38	118 (≈ 41 µg/mL)	7.94 (≈ 2.76 µg/mL)
O=C(NCc1ccccc1F)N1CCN(Cc2ccc(Br)s2)CC1	5.72	5.93	60 (≈ 24.7 µg/mL)	6.6 (≈ 2.72 µg/mL)
COc1ccc(-c2nsc(SCC(=O)N3CCCC3)n2)cc1	4.97	5.27	10 (≈ 3.35 µg/mL)	1.6 (≈ 0.538 µg/mL)
Br.CCCc1cc(C(C)=O)ccc1OCCCON1C(=N)N=C(N)NC1(C)C	2.92	4.02	201	2.34
O=C(NCc1ccc(Oc2ccccc2)cc1)c1c(C(F)(F)F)nc2ccccn12	6.28	6.58	1 (≈ 0.411 µg/mL)	0.2 (≈ 0.0823 µg/mL)
c1ccc(Cc2nnc(Sc3ccnc(N4CCN(c5ccncc5)CC4)n3)n2CCN2CCOCC2)cc1	2.18	3.12	186 (≈ 101 µg/mL)	7.85 (≈ 4.27 µg/mL)
Clc1ccc(CCNc2cc(-c3ccccc3)nc3ncnn23)cc1	5.53	5.73	1 (≈ 0.35 µg/mL)	1.5 (≈ 0.525 µg/mL)
COc1ccc(-c2nc(-c3cccc(NC(=O)Cc4ccc(F)cc4)c3)no2)cc1OC	6.37	6.68	102 (≈ 44.2 µg/mL)	3.7 (≈ 1.6 µg/mL)
O=C(C1CCN(c2nnc(-n3cccc3)s2)CC1)N1CCC(Cc2ccccc2)CC1	6.37	6.78	1 (≈ 0.436 µg/mL)	4.2 (≈ 1.83 µg/mL)
Cc1ccc2nc(C(F)(F)F)c(C(=O)NCc3cccs3)n2c1	4.79	4.98	17 (≈ 5.77 µg/mL)	0.9 (≈ 0.305 µg/mL)
O=C(O)C(F)(F)F.c1ccc2c(-c3ccc(CNCC4CCNC4)cc3)cncc2c1 (stereo not given)	1.52	3.02	61	5.56
Cc1nc2ccccn2c1C(=O)NCc1ccc(Cl)cc1	4.04	4.12	405 (≈ 121 µg/mL)	0.4 (≈ 0.12 µg/mL)
c1csc(Cc2nn3c(-c4n[nH]c5c4CCC5)nnc3s2)c1	3.3	3.48	196 (≈ 64.4 µg/mL)	2.4 (≈ 0.788 µg/mL)
Cc1cc(NCCc2ccccc2)nc(NC(=N)Nc2ccc(Cl)cc2)n1	4	6.74	73 (≈ 27.8 µg/mL)	2.37 (≈ 0.903 µg/mL)
CC(C)n1ncc2c(C(=O)NCC(c3cccs3)N3CCOCC3)cc(-c3ccccc3)nc21 (stereo not given)	7.21	7.54	1 (≈ 0.476 µg/mL)	4.8 (≈ 2.28 µg/mL)
Nc1cc(OCc2ccccc2)ccc1Nc1ccccc1	6.65	6.94	1 (≈ 0.29 µg/mL)	9.44 (≈ 2.74 µg/mL)
FC(F)(F)c1nnc2ccc(Cl)nn12	3.11	3.1	344 (≈ 76.6 µg/mL)	9.1 (≈ 2.03 µg/mL)
CC(C)(C)C(=O)CC1(O)Oc2ccccc2N=C1C=C(O)C(C)(C)C (stereo not given)	7.49	7.84	75 (≈ 25.9 µg/mL)	4.03 (≈ 1.39 µg/mL)
N#Cc1ccc2c(c1)CCN(CCCSc1ccnc3cc(C(F)(F)F)ccc13)CC2	7.96	8.64	1 (≈ 0.442 µg/mL)	2.4 (≈ 1.06 µg/mL)
Br.Cc1cc(C)cc(OCCCON2C(=N)N=C(N)NC2(C)C)c1	3.2	4.72	358	5.31

SMILES	logD (physchem [1])	logP (physchem [2])	solubility kinetic (physchem [3]) [µM]	MIC90 [4] [µM]
CCCCc1ccc(C(=O)Nc2nccc3ccccc23)nc1	6.65	6.94	98 (≈ 29.9 µg/mL)	9.23 (≈ 2.82 µg/mL)
Cc1ccc2nc(Cl)c(CNCc3cccs3)cc2c1	6.84	7.23	44 (≈ 13.3 µg/mL)	7.59 (≈ 2.3 µg/mL)
Br.CC1(C)NC(N)=NC(=N)N1OCCCOc1ccc(Cl)cc1Cl	3.39	4.83	337	3.55
Fc1ccc2nc(Nc3nc(-c4ccccn4)cs3)sc2c1	5.53	5.54	28.5 (≈ 9.36 µg/mL)	2.3 (≈ 0.755 µg/mL)
CCc1c(C)nc(-n2nc(C)cc2NC(=O)c2ccccc2SC)[nH]c1=O	5.63	6.48	1 (≈ 0.383 µg/mL)	1.15 (≈ 0.44 µg/mL)
Br.CCc1ccccc1OCCCON1C(=N)N=C(N)NC1(C)C	3.3	4.83	225	3.2
Cc1ccc2nc(C(F)(F)F)c(C(=O)NCc3cccc(OC(C)C)c3)n2c1	6.19	6.43	1 (≈ 0.391 µg/mL)	2.1 (≈ 0.822 µg/mL)
O=C(/C=C/c1ccccc1)N1CCN(Cc2cccc(OCc3ccccc3)c2)CC1	7.21	7.54	61 (≈ 25.2 µg/mL)	8.22 (≈ 3.39 µg/mL)
O=C(CCC1CCCCC1)Nc1cccc(-c2nnc(-c3ccco3)o2)c1	6.84	7.18	1 (≈ 0.365 µg/mL)	6.1 (≈ 2.23 µg/mL)
CCc1ccc(C2CC(C(F)(F)F)n3ncc(C(=O)NCc4cccs4)c3N2)cc1 (stereo not given)	6.99	7.27	1 (≈ 0.434 µg/mL)	4.37 (≈ 1.9 µg/mL)
COc1ccc(CC(=O)Nc2c(-c3cccs3)nc3cc(C)ccn23)cc1	3.95	4.02	87 (≈ 32.8 µg/mL)	6.8 (≈ 2.57 µg/mL)
CC(=O)N1CCc2cc3nc(C)cc(C)c3cc21	2.64	2.65	309 (≈ 74.3 µg/mL)	3.7 (≈ 0.889 µg/mL)
CN1CCN(c2ccc(C(F)(F)F)cc2NC(=O)c2ccccn2)CC1	6.19	6.84	182 (≈ 66.3 µg/mL)	1.91 (≈ 0.694 µg/mL)
Cc1ccc2nc(C)c(C(=O)NCc3ccco3)n2c1	3.02	3.02	277 (≈ 74.6 µg/mL)	1.3 (≈ 0.35 µg/mL)
CCOC(=O)c1cc(-c2csc(Nc3c(C)cc(C)cc3C)n2)on1	7.12	7.45	1 (≈ 0.357 µg/mL)	4.07 (≈ 1.46 µg/mL)
N#Cc1nc(-c2ccccc2F)oc1NCCc1ccccc1	6.37	6.63	3 (≈ 0.922 µg/mL)	2.79 (≈ 0.856 µg/mL)
c1ccc(SCc2nn3c(-c4ccccc4)nnc3s2)cc1	5.44	5.78	1 (≈ 0.324 µg/mL)	2.69 (≈ 0.873 µg/mL)
Cl.O=C(c1ccco1)N(CCCn1ccnc1)c1nc2c(Cl)cccc2s1	5.25	5.63	21	8.41
N#Cc1nc(-c2ccccc2)oc1S(=O)(=O)c1ccc(Cl)cc1	7.12	7.48	1 (≈ 0.345 µg/mL)	8.9 (≈ 3.07 µg/mL)
O=C(Cc1ccc(F)cc1)Nc1nc(-c2ccccn2)cs1	4.32	4.33	14 (≈ 4.39 µg/mL)	9.3 (≈ 2.91 µg/mL)

SMILES	logD (physchem [1])	logP (physchem [2])	solubility kinetic (physchem [3]) [µM]	MIC90 [4] [µM]
Cc1ccc(C(=O)Nc2nc(-c3ccccn3)cs2)s1	4.6	4.61	15 (≈ 4.52 µg/mL)	8.41 (≈ 2.54 µg/mL)
C=CCNc1nc(SC)nc2ccccc12	4.97	5.13	279 (≈ 64.5 µg/mL)	3.2 (≈ 0.74 µg/mL)
CCOC(=O)CC[C@H](NC(=O)c1ccc(S(=O)(=O)Nc2ccc3nc(N)[nH]c(=O)c3c2)cc1)C(=O)OCC	2.46	2.45	300 (≈ 164 µg/mL)	1.5 (≈ 0.818 µg/mL)
OC1(c2ccccc2)Oc2ccccc2N=C1c1ccccc1 (stereo not given)	6.09	6.19	263 (≈ 79.3 µg/mL)	6.68 (≈ 2.01 µg/mL)
O=C(Nc1nnc(-c2ccc(Cl)cc2)o1)c1cccc(C(F)(F)F)c1	4.51	6.29	1 (≈ 0.368 µg/mL)	5.62 (≈ 2.07 µg/mL)
COc1cc(Cc2cnc(N)nc2N)c2cnccc2c1N(C)C	2.55	2.61	304 (≈ 98.6 µg/mL)	2.99 (≈ 0.968 µg/mL)
Cn1ccnc1CNCCS(=O)(=O)c1cccc(Nc2ccc(-c3cccc(F)c3)cn2)c1	4.41	4.62	64 (≈ 29.8 µg/mL)	4.68 (≈ 2.18 µg/mL)
Cc1ccc2nc(C(F)(F)F)c(C(=O)NCc3ccc4c(c3)OCO4)n2c1	4.79	4.98	22 (≈ 8.3 µg/mL)	1.1 (≈ 0.415 µg/mL)
COc1ccc(-c2cncc(-c3cc(N4CCN(CCO)CC4)nc(-c4ccccc4)n3)c2)cc1	5.91	6.34	1 (≈ 0.468 µg/mL)	1.45 (≈ 0.676 µg/mL)
COc1ccc(CCNC(=O)c2c(C)nc3ccccn23)cc1	3.39	3.41	348 (≈ 108 µg/mL)	3.1 (≈ 0.959 µg/mL)
O=C(CCCSc1ccccc1)NNC(=O)c1cccs1	3.67	3.77	559 (≈ 179 µg/mL)	8.32 (≈ 2.67 µg/mL)
O=C(Nc1ccccc1-c1nc(C2CCC2)cs1)OCC1CCNCC1.O=C(O)C(F)(F)F	4.41	8.15	115	8.71
Cc1nc2ccccn2c1C(=O)NCc1ccc2c(c1)OCO2	3.02	3.02	357 (≈ 110 µg/mL)	2.9 (≈ 0.897 µg/mL)
COc1ccc(-c2cc(NC(=O)c3ccc(F)cc3Cl)ccc2OC)cc1	6.28	6.48	1 (≈ 0.386 µg/mL)	8.13 (≈ 3.14 µg/mL)
CC(Oc1ccccc1)C(=O)Nc1nc(-c2ccccn2)cs1 (stereo not given)	5.07	5.06	174 (≈ 56.6 µg/mL)	9.77 (≈ 3.18 µg/mL)
CN1CCN(c2cc(-c3ccncc3)nc(-c3ccccc3)n2)CC1	4.88	5.54	379 (≈ 126 µg/mL)	9.02 (≈ 2.99 µg/mL)
O=C(C=Cc1ccco1)N1CCN(Cc2ccc3c(c2)OCO3)CC1	4.51	4.72	186 (≈ 63.3 µg/mL)	4.6 (≈ 1.57 µg/mL)
Br.CC1(C)N=C(N)N=C(N)N1OCCc1ccc2ccccc2c1	2.92	4.23	201	2.32
CNc1nc(SC)nc2ccsc12	3.3	3.3	439 (≈ 92.8 µg/mL)	3.4 (≈ 0.718 µg/mL)
CC(C)c1ccc(-c2cncc(N3CCN(c4ccncc4)CC3)n2)cc1	4.79	6.74	89 (≈ 32 µg/mL)	8.32 (≈ 2.99 µg/mL)

From ChEMBL document CHEMBL2095176, “GSK Tuberculosis Screening Data”
